Here are results for eight molecules from the NIST ThermoML archive (doi:10.1016/j.jct.2015.05.014).

The data set is described as follows: activity coefficient (dimensionless); of the first substance listed, at infinite dilution; xn = mol fraction of the nth substance listed. The following applies: 100 kPa, Liquid, Chromatography, x1 = 0.

± gives the expanded uncertainty stated by the source.

With `C1=CCCCC1` [cyclohexene] + CC(O)C(=O)[O-].CC[N+]1(C)CCCC1, the activity coefficient runs as follows: (308.15 K) 22.4 ± 1.9; (318.15 K) 21.7 ± 1.9; (328.15 K) 20.7 ± 1.8; (338.15 K) 20.2 ± 1.7; (348.15 K) 19.7 ± 1.7; (358.15 K) 19.5 ± 1.7. For the same molecule, under “368.15 K”, the activity coefficient came out at 18.9 ± 1.6.

Consider `CO` [methanol] + CC(O)C(=O)[O-].CC[N+]1(C)CCCC1, for which the activity coefficient is, setting by setting: (358.15 K) 0.086 ± 0.03; (368.15 K) 0.095 ± 0.03; (378.15 K) 0.105 ± 0.03; (388.15 K) 0.116 ± 0.03; (398.15 K) 0.125 ± 0.03; (408.15 K) 0.137 ± 0.029.

With `CCOCC` [diethyl ether] + CC(O)C(=O)[O-].CC[N+]1(C)CCCC1, the activity coefficient came to 15.8 ± 1.4 (308.15 K); 15.6 ± 1.3 (318.15 K); 15.5 ± 1.3 (328.15 K); 15.1 ± 1.3 (338.15 K); 15 ± 1.3 (348.15 K); 15.1 ± 1.3 (358.15 K). Further, the activity coefficient (368.15 K) came to 14.9 ± 1.3.

For `CCCO` [propan-1-ol] + CC(O)C(=O)[O-].CC[N+]1(C)CCCC1, the activity coefficient reads like this: (358.15 K) 0.236 ± 0.032; (368.15 K) 0.256 ± 0.033; (378.15 K) 0.277 ± 0.034; (388.15 K) 0.302 ± 0.035; (398.15 K) 0.327 ± 0.036; (408.15 K) 0.349 ± 0.037.

Regarding `c1ccccc1` [benzene] + CC(O)C(=O)[O-].CC[N+]1(C)CCCC1, the activity coefficient worked out at 2.85 ± 0.25 (318.15 K); 2.94 ± 0.25 (328.15 K); 3.04 ± 0.26 (338.15 K); 3.14 ± 0.27 (348.15 K); 3.24 ± 0.28 (358.15 K); 3.36 ± 0.29 (368.15 K).

For the molecule `CCC[N+](=O)[O-]` [1-nitropropane] + CC(O)C(=O)[O-].CC[N+]1(C)CCCC1, the activity coefficient reads like this: (318.15 K) 1.75 ± 0.15; (328.15 K) 1.8 ± 0.15; (338.15 K) 1.86 ± 0.16; (348.15 K) 1.92 ± 0.16; (358.15 K) 1.98 ± 0.17; (368.15 K) 2.06 ± 0.18.

Take `CCCC(=O)CC` [3-hexanone] + CC(O)C(=O)[O-].CC[N+]1(C)CCCC1: the activity coefficient reads like this: (318.15 K) 8.06 ± 0.7; (328.15 K) 8.06 ± 0.7; (338.15 K) 8.12 ± 0.7; (348.15 K) 8.19 ± 0.71; (358.15 K) 8.25 ± 0.71; (368.15 K) 8.4 ± 0.73.

On to `C1CCCCCC1` [cycloheptane] + CC(O)C(=O)[O-].CC[N+]1(C)CCCC1, for which the activity coefficient came to 69.7 ± 6 (308.15 K); 64.6 ± 5.6 (318.15 K); 60.3 ± 5.2 (328.15 K); 57 ± 4.9 (338.15 K); 53.8 ± 4.7 (348.15 K); 51 ± 4.4 (358.15 K). For the setting “368.15 K”, the activity coefficient stood at 47.8 ± 4.1.
